Source: US20060252800A1, “Anti-leishmania agent” (priority 2003, published 2006)

Test system: Leishmania (L. major)
Assay: Leishmania protozoa proliferation inhibition assay
Format: cell-based
Settings: for OD level (number of viable Leishmania protozoa): 48 hours at 27° C., absorbance 450 nm minus 630 nm; for IC50: calculated from the graphs of FIGS. 1 to 4 (concentration vs number of viable leishmania protozoa), read-out: Concentration inhibiting 50% leishmania proliferation
Experimental: After dissolving each of the obtained compounds in dimethylsulfoxide (hereinafter referred to as DMSO), the resultant was diluted by 9 steps in Medium 199 medium (Invitrogen) to the indicated concentration, filtrated with a membrane filter, and each of the filtration was made as a sample solution. […] By keeping the solution at 27° C., incubation was performed under 5% CO2, for 48 hours. Then, TetraColor ONE (tradename: Seikagaku Corporation) reagent was added thereto and further incubated for 6 hours. Then, the absorbance at a wavelength of 450 nm was measured for the 96-well microtiter plate with a microplate reader, the wave length of 630 nm was made as reference wave length, and in order to exclude background effect, the absorbance at 630 nm was excluded from the one at 450 nm, and the OD level was calculated as a level to indicate the number of viable Leishmania protozoa. The assay was performed by three wells at a time for each concentration of each sample, and the mean level was made as OD level. […] Amphotericin B was used as positive control. […] Inhibiting effect against […] protozoa for each sample was similar or more compared with that of Amtephotericin B.

[1] = Table 3, sample concentration 0.001 mg/ml
[2] = Table 3, sample concentration 0.002165 mg/ml
[3] = Table 3, sample concentration 0.0072171 mg/ml
[4] = Table 3, sample concentration 0.02406 mg/ml
[5] = Table 3, sample concentration 0.08019 mg/ml
[6] = Table 3, sample concentration 0.2673 mg/ml
[7] = Table 3, sample concentration 0.891 mg/ml
[8] = Table 3, sample concentration 2.97 mg/ml
[9] = Table 3, sample concentration 9.9 mg/ml
[10] = Table 3, sample concentration 33 mg/ml
[11] = Table 2, sample concentration 0.0001 mg/ml
[12] = Table 2, sample concentration 0.0007 mg/ml
[13] = Table 2, sample concentration 0.002 mg/ml
[14] = Table 2, sample concentration 0.008 mg/ml
[15] = Table 2, sample concentration 0.025 mg/ml
[16] = Table 2, sample concentration 0.084 mg/ml
[17] = Table 2, sample concentration 0.279 mg/ml
[18] = Table 2, sample concentration 0.93 mg/ml
[19] = Table 2, sample concentration 3.1 mg/ml
[20] = Table 2, sample concentration 2E−04 mg/ml
[21] = Table 1, sample concentration 0.001 mg/ml
[22] = Table 1, sample concentration 0.016384 mg/ml
[23] = Table 1, sample concentration 0.04096 mg/ml
[24] = Table 1, sample concentration 0.1024 mg/ml
[25] = Table 1, sample concentration 0.256 mg/ml
[26] = Table 1, sample concentration 0.64 mg/ml
[27] = Table 1, sample concentration 1.6 mg/ml
[28] = Table 1, sample concentration 4 mg/ml
[29] = Table 1, sample concentration 10 mg/ml
[30] = Table 1, sample concentration 25 mg/ml, mean of three wells

C[C@@H]1[C@H](O)[C@@H](C)/C=C/C=C/C=C/C=C/C=C/C=C/C=C/[C@H](O[C@@H]2O[C@H](C)[C@@H](O)[C@H](N)[C@@H]2O)C[C@@H]2O[C@](O)(C[C@@H](O)C[C@@H](O)[C@H](O)CC[C@@H](O)C[C@@H](O)CC(=O)O[C@H]1C)C[C@H](O)[C@H]2C(=O)O [Amphotericin B, reference compound]
OD level (number of viable Leishmania protozoa) (Table 1, positive control line, concentration 0.001 mg/ml): 0.428
OD level (number of viable Leishmania protozoa) (Table 1, positive control line, concentration 0.0121094 mg/ml): 0.394
OD level (number of viable Leishmania protozoa) (Table 1, positive control line, concentration 0.0242188 mg/ml): 0.373
OD level (number of viable Leishmania protozoa) (Table 1, positive control line, concentration 0.0484375 mg/ml): 0.352
OD level (number of viable Leishmania protozoa) (Table 1, positive control line, concentration 0.096875 mg/ml): 0.349
OD level (number of viable Leishmania protozoa) (Table 1, positive control line, concentration 0.19375 mg/ml): 0.044
OD level (number of viable Leishmania protozoa) (Table 1, positive control line, concentration 0.3875 mg/ml): 0.036
OD level (number of viable Leishmania protozoa) (Table 1, positive control line, concentration 0.775 mg/ml): 0.036
OD level (number of viable Leishmania protozoa) (Table 1, positive control line, concentration 1.55 mg/ml): 0.036
OD level (number of viable Leishmania protozoa) (Table 1, positive control line, concentration 3.1 mg/ml): 0.034
OD level (number of viable Leishmania protozoa) [1]: 0.351
OD level (number of viable Leishmania protozoa) [2]: 0.338
OD level (number of viable Leishmania protozoa) [3]: 0.325
OD level (number of viable Leishmania protozoa) [4]: 0.331
OD level (number of viable Leishmania protozoa) [5]: 0.311
OD level (number of viable Leishmania protozoa) [6]: 0.273
OD level (number of viable Leishmania protozoa) [7]: 0.051
OD level (number of viable Leishmania protozoa) [8]: 0.029
OD level (number of viable Leishmania protozoa) [9]: 0.029
OD level (number of viable Leishmania protozoa) [10]: 0.030
IC50: 140 nM

CN1/C(=c2\s/c(=C\c3cccc[n+]3C)n(Cc3ccccc3)c2=O)Sc2ccccc21.Cc1ccc(S(=O)(=O)[O-])cc1 [I (a), 2-[{5-(3-methyl-2(3H)-benzothiazolylidene)-4-oxo-3-benzyl-2-thiazolidinylidene}methyl]-1-methylpyridinium=p-toluenesulfonate]
OD level (number of viable Leishmania protozoa) [11]: 0.356
OD level (number of viable Leishmania protozoa) [12]: 0.361
OD level (number of viable Leishmania protozoa) [13]: 0.383
OD level (number of viable Leishmania protozoa) [14]: 0.469
OD level (number of viable Leishmania protozoa) [15]: 0.172
OD level (number of viable Leishmania protozoa) [16]: 0.088
OD level (number of viable Leishmania protozoa) [17]: 0.043
OD level (number of viable Leishmania protozoa) [18]: 0.034
OD level (number of viable Leishmania protozoa) [19]: 0.035
OD level (number of viable Leishmania protozoa) [20]: 0.356
IC50: 410 nM

CCn1c(=O)/c(=C2\Sc3ccccc3N2C)s/c1=C\c1cccc[n+]1Cc1ccc(C(=O)O)cc1.[Br-] [I (d), 1-(p-carboxyphenyl)methyl-2-[3-ethyl-{5-(3-methyl-2(3H)-benzothiazolylidene)-4-oxo-2-thiazolidinylidene}methyl]pyridinium=bromide]
OD level (number of viable Leishmania protozoa) [11]: 0.360
OD level (number of viable Leishmania protozoa) [12]: 0.359
OD level (number of viable Leishmania protozoa) [13]: 0.348
OD level (number of viable Leishmania protozoa) [14]: 0.364
OD level (number of viable Leishmania protozoa) [15]: 0.384
OD level (number of viable Leishmania protozoa) [16]: 0.346
OD level (number of viable Leishmania protozoa) [17]: 0.360
OD level (number of viable Leishmania protozoa) [18]: 0.333
OD level (number of viable Leishmania protozoa) [19]: 0.242
OD level (number of viable Leishmania protozoa) [20]: 0.356
IC50: 5300 nM

C=CCn1c(=Cc2cccc[n+]2C)sc(=C2Sc3ccccc3N2C)c1=O.Cc1ccc(S(=O)(=O)[O-])cc1 [IV (a), 2-[{5-(3-methyl-2(3H)-benzothiazolylidene)-4-oxo-3-(2-propenyl)-2-thiazolidinylidene}methyl]-1-methylpyridinium=p-toluenesulfonate]
OD level (number of viable Leishmania protozoa) [21]: 0.470
OD level (number of viable Leishmania protozoa) [22]: 0.541
OD level (number of viable Leishmania protozoa) [23]: 0.488
OD level (number of viable Leishmania protozoa) [24]: 0.385
OD level (number of viable Leishmania protozoa) [25]: 0.157
OD level (number of viable Leishmania protozoa) [26]: 0.095
OD level (number of viable Leishmania protozoa) [27]: 0.047
OD level (number of viable Leishmania protozoa) [28]: 0.035
OD level (number of viable Leishmania protozoa) [29]: 0.031
OD level (number of viable Leishmania protozoa) [30]: 0.032
IC50: 320 nM

CCn1c(=Cc2cc[n+](C)c3ccccc23)sc(=C2Sc3ccccc3N2C)c1=O.Cc1ccc(S(=O)(=O)[O-])cc1 [IV (b), 4-[{5-(3-methyl-2(3H)-benzothiazolylidene)-4-oxo-3-ethyl-2-thiazolidinylidene}methyl]-1-methylquinolium=p-toluene sulfonate]
OD level (number of viable Leishmania protozoa) [11]: 0.361
OD level (number of viable Leishmania protozoa) [12]: 0.354
OD level (number of viable Leishmania protozoa) [13]: 0.362
OD level (number of viable Leishmania protozoa) [14]: 0.380
OD level (number of viable Leishmania protozoa) [15]: 0.409
OD level (number of viable Leishmania protozoa) [16]: 0.211
OD level (number of viable Leishmania protozoa) [17]: 0.102
OD level (number of viable Leishmania protozoa) [18]: 0.044
OD level (number of viable Leishmania protozoa) [19]: 0.037
OD level (number of viable Leishmania protozoa) [20]: 0.351

CCn1c(=Cc2ccc3ccccc3[n+]2C)sc(=C2Sc3ccccc3N2C)c1=O.[I-] [IV (c), 2-[{5-(3-methyl-2(3H)-benzothiazolylidene)-4-oxo-3-ethyl-2-thiazolidinylidene}methyl]-1-methylquinolinium=iodide]
OD level (number of viable Leishmania protozoa) [21]: 0.472
OD level (number of viable Leishmania protozoa) [22]: 0.470
OD level (number of viable Leishmania protozoa) [23]: 0.474
OD level (number of viable Leishmania protozoa) [24]: 0.496
OD level (number of viable Leishmania protozoa) [25]: 0.398
OD level (number of viable Leishmania protozoa) [26]: 0.158
OD level (number of viable Leishmania protozoa) [27]: 0.117
OD level (number of viable Leishmania protozoa) [28]: 0.069
OD level (number of viable Leishmania protozoa) [29]: 0.032
OD level (number of viable Leishmania protozoa) [30]: 0.032
IC50: 820 nM

CCn1c(=Cc2sc3ccccc3[n+]2C)sc(=C2C=Cc3ccccc3N2C)c1=O.Cc1ccc(S(=O)(=O)[O-])cc1 [IV (d)]
OD level (number of viable Leishmania protozoa) [1]: 0.346
OD level (number of viable Leishmania protozoa) [2]: 0.357
OD level (number of viable Leishmania protozoa) [3]: 0.339
OD level (number of viable Leishmania protozoa) [4]: 0.341
OD level (number of viable Leishmania protozoa) [5]: 0.359
OD level (number of viable Leishmania protozoa) [6]: 0.348
OD level (number of viable Leishmania protozoa) [7]: 0.365
OD level (number of viable Leishmania protozoa) [8]: 0.395
OD level (number of viable Leishmania protozoa) [9]: 0.344
OD level (number of viable Leishmania protozoa) [10]: 0.035
